According to patent publication US20250214986A1, “P2X3 INHIBITOR COMPOUND, SALT THEREOF, POLYMORPH THEREOF AND USE THEREOF” (HUMANWELL HEATHCARE (GROUP) CO., LTD., priority 2022, published 2025):
Structures can show the parent of a compound that is named as a salt.

Legend:
Format in all cases: physicochemical
[1] = Hygroscopicity by dynamic vapor sorption (DVS); conditions: for crystalline form after DVS test: 0% RH to 95% RH to 0% RH; for vapor sorption / hygroscopicity: 25° C./80% RH; for hygroscopicity: DVS
Method: Dynamic vapor sorption (DVS) curves were acquired on a DVS IntrInsic from Surface Measurement Systems (SMS). The relative humidity at 25° C. was corrected with the deliquescence points of LiCl, Mg(NO3)2, and KCl.
Starting at 0% RH, the test acquired the percentage changes in mass of the samples when the humidity changed (0% RH to 95% RH to 0% RH) at a constant temperature of 25° C.

[2] = Dynamic solubility experiment at 37° C.
Method: In the test, the purity, dynamic solubility and stability were tested using an Agilent 1260 high-performance liquid chromatograph, the molar ratio of salt-forming ions was tested using ion chromatography, and the analytical conditions are shown in Tables A-4 and A-5 below.
Solids at a feeding concentration of 10 mg/mL (calculated based on free base) were rotationally mixed with corresponding vehicles at 37° C. […] After sampling at each time point, the samples were centrifuged (at 10000 rpm) and filtered (through a 0.45 μm PTFE filter head). The HPLC concentrations and pH values of the filtrates were determined.
100.2 mg of NaCl and 50.3 mg of Triton X-100 were weighed into a 50 mL volumetric flask and then completely dissolved by addition of purified water. 816 μL of 1 M hydrochloric acid was added, and the pH was adjusted to 1.8 with 1 M hydrochloric acid or 1 M NaOH solution. The mixed solution was brought to the volume by addition of purified water.
170.5 mg of anhydrous NaH2PO4, 22.2 mg of NaOH, and 310.9 mg of NaCl were weighed into a 50 mL volumetric flask and then completely dissolved by addition of purified water. The pH was adjusted to 6.5 with 1 M hydrochloric acid or 1 M NaOH solution. The mixed solution was brought to the volume by addition of purified water. Subsequently, 55.1 mg of SIF powder was weighed into a 25 mL volumetric flask and completely dissolved with the above solution, and the mixed solution was brought to the volume.
0.21 mL of glacial acetic acid, 101.6 mg of NaOH, and 295.4 mg of NaCl were added into a 25 mL volumetric flask and then completely dissolved by addition of about 20 mL of purified water. The pH was adjusted to 5.0 with 1 M hydrochloric acid or 1 M NaOH solution. The mixed solution was brought to the volume by addition of purified water, and then 280.8 mg of SIF powder was weighed into the flask and completely dissolved.

[3] = Solid state stability (XRPD and HPLC); conditions: for change of HPLC purity after placement under the corresponding conditions: 60° C. sealed 1 day, 25° C./60% RH and 40° C./75% RH uncovered 1 week/1 month
Method: In the test, the purity, dynamic solubility and stability were tested using an Agilent 1260 high-performance liquid chromatograph, the molar ratio of salt-forming ions was tested using ion chromatography, and the analytical conditions are shown in Tables A-4 and A-5 below. [table]

[4] = 25° C./60% RH/uncovered, 1 week
[5] = 40° C./75% RH/uncovered, 1 week

In the case of `Cc1cnc(-c2cc(O[C@@H](C)[C@@H](C)O)cc(C(=O)N[C@H](C)c3cnc(C(F)(F)F)nc3)c2F)s1` [Crystalline form A of hydrochloride], the “crystalline form after DVS test” value ([1]; 25° C.) is reported as “remained unchanged”, the vapor sorption [1] is reported as “about 0.49%” and the hygroscopicity [1] is reported as “slight hygroscopicity”. For the same compound, the Crystalline form change ([2]; FaSSIF, 1 h) was “Yes^a”, the “S: solubility” value ([2]; FaSSIF, 1 h) was 9 µg/mL and the pH of filtrate ([2]; FaSSIF, 1 h) was 5.2. For the same compound, the Crystalline form change ([2]; FaSSIF, 4 h) was “Yes^a”, the “S: solubility” value ([2]; FaSSIF, 4 h) was 9 µg/mL and the pH of filtrate ([2]; FaSSIF, 4 h) was 5.2. The Crystalline form change ([2]; FaSSIF, 24 h) was “Yes^a”, the “S: solubility” value ([2]; FaSSIF, 24 h) was 14 µg/mL and the pH of filtrate ([2]; FaSSIF, 24 h) was 5.2. The Crystalline form change ([2]; FeSSIF, 1 h) was “Yes^a”, the “S: solubility” value ([2]; FeSSIF, 1 h) was 30 µg/mL and the pH of filtrate ([2]; FeSSIF, 1 h) was 4.9. For the same compound, the Crystalline form change ([2]; FeSSIF, 4 h) was “Yes^a”, the “S: solubility” value ([2]; FeSSIF, 4 h) was 27 µg/mL and the pH of filtrate ([2]; FeSSIF, 4 h) was 4.9. For the same compound, the Crystalline form change ([2]; FeSSIF, 24 h) was “Yes^a”, the “S: solubility” value ([2]; FeSSIF, 24 h) was 23 µg/mL and the pH of filtrate ([2]; FeSSIF, 24 h) was 4.9. For the same compound, the Crystalline form change ([2]; H2O, 1 h) was “Yes^a”, the “S: solubility” value ([2]; H2O, 1 h) was 4 µg/mL and the pH of filtrate ([2]; H2O, 1 h) was 2.1. The Crystalline form change ([2]; H2O, 4 h) was “Yes^a”, the “S: solubility” value ([2]; H2O, 4 h) was 3 µg/mL and the pH of filtrate ([2]; H2O, 4 h) was 2.1. The Crystalline form change ([2]; H2O, 24 h) was “Yes^a”, the “S: solubility” value ([2]; H2O, 24 h) was 4 µg/mL and the pH of filtrate ([2]; H2O, 24 h) was 2.1. For the same compound, the solubility at 24 h ([2]; SGF, 37 °C, pH 1.8, simulated gastric fluid, thermodynamic from solid, SGF, 24 h, read-out: S: solubility) was 11 µg/mL, the Crystalline form change ([2]; SGF, 1 h) was “Yes^a” and the “S: solubility” value ([2]; SGF, 1 h) was 14 µg/mL. For the same compound, the pH of filtrate ([2]; SGF, 1 h) was 1.6, the Crystalline form change ([2]; SGF, 4 h) was “Yes^a” and the “S: solubility” value ([2]; SGF, 4 h) was 11 µg/mL. For the same compound, the pH of filtrate ([2]; SGF, 4 h) was 1.6, the Crystalline form change ([2]; SGF, 24 h) was “Yes^a” and the pH of filtrate ([2]; SGF, 24 h) was 1.6. For the same compound, the “HPLC Purity (area %)” value [3, 4] was 99.57 area %, the “HPLC purity Relative to starting (%)” value [3, 4] was 99.98% and the “HPLC Purity (area %)” value [3, 5] was 99.58 area %. The “HPLC purity Relative to starting (%)” value [3, 5] was 99.99%, the “change of HPLC purity after placement under the corresponding conditions” value [3] was “no significant change” and the “HPLC Purity (area %)” value ([3]; 60° C./sealed, 1 day) was 99.58 area %. The “HPLC purity Relative to starting (%)” value ([3]; 60° C./sealed, 1 day) was 99.99% and the “HPLC Purity (area %)” value ([3]; Starting) was 99.59 area %.
For `Cc1cnc(-c2cc(O[C@@H](C)[C@@H](C)O)cc(C(=O)N[C@H](C)c3cnc(C(F)(F)F)nc3)c2F)s1` [Crystalline form A of maleate], the “crystalline form after DVS test” value ([1]; 25° C.) was “remained unchanged”, the “vapor sorption when the humidity was more than 80% RH” value ([1]; 25° C., more than 80% RH) was “rapid vapor sorption” and the vapor sorption [1] was “about 0.41%”. For the same compound, the hygroscopicity [1] was “slight hygroscopicity”, the Crystalline form change ([2]; FaSSIF, 1 h) was “Yes^a” and the “S: solubility” value ([2]; FaSSIF, 1 h) was 6 µg/mL. For the same compound, the pH of filtrate ([2]; FaSSIF, 1 h) was 4.9, the Crystalline form change ([2]; FaSSIF, 4 h) was “Yes^a” and the “S: solubility” value ([2]; FaSSIF, 4 h) was 7 µg/mL. The pH of filtrate ([2]; FaSSIF, 4 h) was 4.7, the Crystalline form change ([2]; FaSSIF, 24 h) was “Yes^a” and the “S: solubility” value ([2]; FaSSIF, 24 h) was 7 µg/mL. For the same compound, the pH of filtrate ([2]; FaSSIF, 24 h) was 4.5, the Crystalline form change ([2]; FeSSIF, 1 h) was “Yes^a” and the “S: solubility” value ([2]; FeSSIF, 1 h) was 20 µg/mL. The pH of filtrate ([2]; FeSSIF, 1 h) was 4.9, the Crystalline form change ([2]; FeSSIF, 4 h) was “Yes^a” and the “S: solubility” value ([2]; FeSSIF, 4 h) was 20 µg/mL. For the same compound, the pH of filtrate ([2]; FeSSIF, 4 h) was 4.9, the Crystalline form change ([2]; FeSSIF, 24 h) was “Yes^a” and the “S: solubility” value ([2]; FeSSIF, 24 h) was 21 µg/mL. For the same compound, the pH of filtrate ([2]; FeSSIF, 24 h) was 4.9, the “solubility in H2O compared with the other forms” value ([2]; H2O) was “highest solubility in H2O” and the Crystalline form change ([2]; H2O, 1 h) was “Yes^a”. The “S: solubility” value ([2]; H2O, 1 h) was 7 µg/mL, the pH of filtrate ([2]; H2O, 1 h) was 2.3 and the Crystalline form change ([2]; H2O, 4 h) was “Yes^a”. The “S: solubility” value ([2]; H2O, 4 h) was 7 µg/mL, the pH of filtrate ([2]; H2O, 4 h) was 2.3 and the Crystalline form change ([2]; H2O, 24 h) was “Yes^a”. The “S: solubility” value ([2]; H2O, 24 h) was 8 µg/mL, the pH of filtrate ([2]; H2O, 24 h) was 2.2 and the Crystalline form change ([2]; SGF, 1 h) was “Yes^a”. The “S: solubility” value ([2]; SGF, 1 h) was 10 µg/mL, the pH of filtrate ([2]; SGF, 1 h) was 1.7 and the Crystalline form change ([2]; SGF, 4 h) was “Yes^a”. For the same compound, the “S: solubility” value ([2]; SGF, 4 h) was 10 µg/mL, the pH of filtrate ([2]; SGF, 4 h) was 1.7 and the Crystalline form change ([2]; SGF, 24 h) was “Yes^a”. For the same compound, the “S: solubility” value ([2]; SGF, 24 h) was 9 µg/mL, the pH of filtrate ([2]; SGF, 24 h) was 1.7 and the “HPLC Purity (area %)” value [3, 4] was 99.71 area %. For the same compound, the “HPLC purity Relative to starting (%)” value [3, 4] was 100.00%, the “HPLC Purity (area %)” value [3, 5] was 99.65 area % and the “HPLC purity Relative to starting (%)” value [3, 5] was 99.94%. The “change of HPLC purity after placement under the corresponding conditions” value [3] was “no significant change”, the “HPLC Purity (area %)” value ([3]; 60° C./sealed, 1 day) was 99.60 area % and the “HPLC purity Relative to starting (%)” value ([3]; 60° C./sealed, 1 day) was 99.89%. For the same compound, the “HPLC Purity (area %)” value ([3]; Starting) was 99.71 area %.
